Results reported in US6635652B1, “Azaindolizinone derivatives and cerebral function improvers containing the same as the active ingredient” (Zenyaku Kogyo Kabushiki Kaisha, priority 1999, dated 2003).

Columns and labels:
[1] = test system: amnesia of rats induced by scopolamine; test: Effects on scopolamine-induced amnesia (passive avoidance task, oral administration); assay type: in vivo; conditions: Rattus norvegicus, po, 60 min before retention trial, scopolamine hydrobromide 2 mg/kg i.p., passive avoidance latency, male Strague Dawley rats, read-out: Inhibitory rate (%); for inhibition in vivo at 0.01 mg/kg: 0.01 mg/kg p.o.; for inhibition in vivo at 1 mg/kg: 1 mg/kg p.o.
From the text: Male rats of the Strague Dawley strain at 8 weeks of age (260±2 g body weight) were used for evaluation through passive avoidance task. The apparatus of passive avoidance task comprises illuminated and dark chambers which are separated from each other by a wall with a door. Floors are constituted by grids made of stainless steel; only the grid in the dark chamber is furnished with wiring for electrification.
Effected on the first and second days of testing was preparative training; each rat was placed in the illuminated chamber and left for 3 minutes to habituate to the apparatus. On the third day of testing, the rats were individually placed in the illuminated chamber and after entering the dark chamber, the door was closed and the floor grid was electrified to deliver electric shock (100 V, 0.4 mA, a period of 0.8 sec). In order to induce amnesia, scopolamine hydrobromide (2 mg/kg) was intraperitoneally injected 20 minutes before the electric shock was delivered. Retention in memory on the electric shock was tested 24 hours later; more specifically, retention in passive avoidance trial was measured in terms of a time interval (latency) from placement of each rat in the illuminated chamber to its entry into the dark chamber. The latency over 300 seconds was recorded as 300 seconds. Respective test compounds were suspended in an aqueous solution of 1% carboxymethyl cellulose and orally administered at a dose of 0.01 or 1 mg/kg 60 minutes before the trial.
Antiamnesic effects of the test compounds were evaluated by inhibitory rate (%) which is calculated by the following formula: [formula]
wherein T stands for latency and SC stands for administration of scopolamine hydrobromide. Experimental results are shown in the following table in which, as to each of the test compounds, only the dose showing higher inhibitory rate was indicated.

rats of the ICR strain = test: Toxicity test on rats in a single dose through oral administration; assay type: in vivo; conditions: oral administration of 2,000 mg/kg, suspended in 1% HPC, observation for 14 days
Protocol: Used in the test were rats of the ICR strain at 6 weeks of age (27.9±0.4 g body weight). They were allowed to freely take food and water; however, fasting was made for a period of 17 hours before administration of the test compounds and for a period of 4 hours after the administration. The respective test compounds were suspended in 1% of hydroxypropyl cellulose (HPC)and orally administered. Until 6 hours after the administration of the test compounds, observation was made frequently, and after that once a day and totally for 14 days.
Used as the test compounds were Compounds 8 and 10.

Compound	melting point [°C]	inhibition in vivo at 0.01 mg/kg [1] [%]	death after single oral dose (rats of the ICR strain)	inhibition in vivo at 1 mg/kg [1] [%]
CC1=CC=CN2C1=NC(=O)C2(Cc1ccccc1)Cc1ccccc1 [Compound 8, 3,3-Dibenzyl-8-methylimidazo[1,2-a]pyridin-2(3H)-one]	–	34.8	None of them induced death	–
O=C1N=C2C=CC=CN2C1(Cc1ccccc1)Cc1ccccc1 [Compound 10, 3,3-Dibenzylimidazo[1,2-a]pyridin-2(3H)-one]	–	78.7	None of them induced death	–
O=C1N=C2C(NCc3ccccc3)=CC=CN2C1(Cc1ccccc1)Cc1ccccc1 [Compound 37, 3,3-Dibenzyl-8-benzylaminoimidazo[1,2-a]pyridin-2(3H)-one]	250	56	–	–
O=C1N=C2C=CC=CN2C1(Cc1ccc([N+](=O)[O-])cc1)Cc1ccc([N+](=O)[O-])cc1 [Compound 38, 3,3-bis(4-Nitrobenzyl)imidazo[1,2-a]pyridin-2(3H)-one]	> 300	–	–	58.5
O=C(O)c1ccc(CC2(Cc3ccc(C(=O)O)cc3)C(=O)N=C3C=CC=CN32)cc1 [Compound 40, 3,3-bis(4-Carboxybenzyl)imidazo[1,2-a]pyridin-2(3H)-one]	> 300	–	–	40.7

Now from value to compound, other results behind:

melting point [°C]	Compound	inhibition in vivo at 0.01 mg/kg [1] [%]	death after single oral dose (rats of the ICR strain)	inhibition in vivo at 1 mg/kg [1] [%]
> 300	O=C1N=C2C=CC=CN2C1(Cc1ccccc1)Cc1ccc(F)cc1 (centres unmarked) [Compound 39, 3-Benzyl-3-(4-fluorobenzyl)imidazo[1,2-a]pyridin-2(3H)-one]	43.7	–	–
283 to 285	NC1=CC=CN2C1=NC(=O)C2(Cc1ccccc1)Cc1ccccc1 [Compound 41, 8-Amino-3,3-dibenzylimidazo[1,2-a]pyridin-2(3H)-one]	30	–	–
